{
  "source": "patent US12163116B2",
  "about": "“Automated bioreactor with foam collector” (OHIO STATE INNOVATION FOUNDATION, priority 2018, dated 2024)",
  "origin": "cited, not measured here",
  "key": {"L. innocua": {"system": "L. innocua", "conditions": "against L. innocua; taught by prior art"}, "[1]": {"system": "Gram-positive bacteria including species of Listeria, Clostridium, Lactobacillus, Staphylococcus, Bacillus"}, "[2]": {"conditions": "compared to commercially available lantibiotics such as nisin"}},
  "data": [
    {"substance": "paenibacillin", "values": [
      {"measurement": "minimum inhibitory concentration", "setting": "L. innocua", "value": 4, "unit": "µg/mL"},
      {"measurement": "antimicrobial potency", "setting": "[1]", "value": "potent against Gram-positive bacteria"},
      {"measurement": "temperature and pH stability", "setting": "[2]", "value": "relatively high temperature and pH stability"},
      {"measurement": "water solubility", "value": "highly water soluble"}
    ]}
  ]
}
